Data on eleven compounds can be found in patent US20240158391A1, “DERIVATIVES OF 4-(IMIDAZO[1,2-A]PYRIDIN-3-YL)-N-(PYRIDIN-3-YL) PYRIMIDIN-2- AMINE FOR TREATING PROLIFERATIVE DISEASES AND CONDITIONS” (AUCENTRA THERAPEUTICS PTY LTD, priority 2019, published 2024).

Structures are written as SMILES.

One assay has as its target CDK2/CyclinA2 (Homo sapiens, UniProt P24941). Put plainly: ADP Glo kinase assay, CDK2/CyclinA2. The class given is biochemical. The settings on record: for remaining activity at 1 µM: compound at 1 μM, read-out: Residual enzymatic activity (%) at 1 μM, CDK2 A; for Ki: Km ATP, read-out: Enzymatic inhibition, Ki, CDK2 A. In short, it runs like this: (§1)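 ADP Glo reagent terminates each kinase reaction after an optimised incubation at room temperature. Compounds are tested at ten concentrations spanning 10 to 0.0005 μM, diluted 1:3, with 0.5% DMSO.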

For a further assay, the target named is CDK6/CyclinD3 (Homo sapiens, UniProt Q00534). Put plainly: ADP Glo kinase assay, CDK6/CyclinD3. The assay is classed as biochemical. Particulars: for Ki: Km ATP, read-out: Enzymatic inhibition, Ki, CDK6 D3; for remaining activity at 1 µM: compound at 1 μM, read-out: Residual enzymatic activity (%) at 1 μM, CDK6 D3. In short, it runs like this: as §1
In general terms: In ADP-Glo the light output rises with the ADP produced.

The target in a further assay is T1, FLT3-ITD (Homo sapiens, UniProt P36888).
T1 sequence (P36888 1-993): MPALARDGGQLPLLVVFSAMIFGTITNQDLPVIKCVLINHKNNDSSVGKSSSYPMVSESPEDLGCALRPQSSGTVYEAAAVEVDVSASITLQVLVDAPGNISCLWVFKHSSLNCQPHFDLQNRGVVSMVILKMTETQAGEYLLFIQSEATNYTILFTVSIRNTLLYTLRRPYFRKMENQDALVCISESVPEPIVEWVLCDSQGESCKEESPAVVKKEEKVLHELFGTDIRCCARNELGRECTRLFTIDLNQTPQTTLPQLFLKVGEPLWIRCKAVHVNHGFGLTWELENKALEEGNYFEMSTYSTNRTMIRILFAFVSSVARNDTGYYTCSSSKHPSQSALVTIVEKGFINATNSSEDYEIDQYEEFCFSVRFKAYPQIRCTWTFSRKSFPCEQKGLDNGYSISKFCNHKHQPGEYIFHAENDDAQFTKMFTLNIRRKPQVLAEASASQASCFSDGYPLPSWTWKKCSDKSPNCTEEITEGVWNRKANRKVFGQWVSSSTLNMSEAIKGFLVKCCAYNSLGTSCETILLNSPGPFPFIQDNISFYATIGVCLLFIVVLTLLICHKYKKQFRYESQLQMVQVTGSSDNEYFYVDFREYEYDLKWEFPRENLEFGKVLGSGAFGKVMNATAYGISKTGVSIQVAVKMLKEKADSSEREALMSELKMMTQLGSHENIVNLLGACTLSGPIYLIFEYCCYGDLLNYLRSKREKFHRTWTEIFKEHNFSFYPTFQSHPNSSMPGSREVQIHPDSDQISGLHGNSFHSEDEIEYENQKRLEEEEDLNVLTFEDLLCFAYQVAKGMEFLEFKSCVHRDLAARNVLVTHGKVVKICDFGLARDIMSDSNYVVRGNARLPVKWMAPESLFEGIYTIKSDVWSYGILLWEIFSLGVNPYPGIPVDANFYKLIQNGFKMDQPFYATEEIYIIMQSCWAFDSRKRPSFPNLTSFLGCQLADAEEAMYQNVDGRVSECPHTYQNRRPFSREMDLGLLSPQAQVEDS
Put plainly: ADP Glo kinase assay, FLT3-ITD. The class given is biochemical. Particulars: Km ATP 100 μM, read-out: Enzymatic inhibition, Ki, FLT3-ITD. In short, it runs like this:
as §1

The next assay has as its target CDK7/CyclinH/Mat1 (Homo sapiens, UniProt P50613). Put plainly: ADP Glo kinase assay, CDK7/CyclinH/Mat1. Particulars: for Ki: Km ATP, read-out: Enzymatic inhibition, Ki, CDK7 H; for remaining activity at 1 µM: compound at 1 μM, read-out: Residual enzymatic activity (%) at 1 μM, CDK7 H. The class given is biochemical. The gist of the method:
as §1

A further assay deals with CDK9/CyclinT1 (Homo sapiens, UniProt P50750). Put plainly: ADP Glo kinase assay, CDK9/CyclinT1. The assay is classed as biochemical. Particulars: for Ki: CDK9/CyclinT1, Km ATP, read-out: Enzymatic inhibition, Ki, CDK9 T1. In short, it runs like this: as §1
The target of the next assay is CDK1/CyclinB (Homo sapiens, UniProt P06493). Put plainly: ADP Glo kinase assay, CDK1/CyclinB. Particulars: for Ki: Km ATP, read-out: Enzymatic inhibition, Ki, CDK1 B; for remaining activity at 1 µM: compound at 1 μM, read-out: Residual enzymatic activity (%) at 1 μM, CDK1 B. The assay is classed as biochemical. The gist of the method: as §1
Another assay relates to MV-4-11. Put plainly: Proliferation assay (resazurin, leukemia cell lines), MV-4-11. Particulars: Homo sapiens, MV4-11, read-out: 72 h Growth inhibition GI50, MV-4-11 cells. The class given is cell-based. The text has this: The following compounds were used as comparators.
A further assay concerns the target CDK4/CyclinD1 (Homo sapiens, UniProt P11802). Put plainly: ADP Glo kinase assay, CDK4/CyclinD1. The assay is classed as biochemical. Particulars: for remaining activity at 1 µM: compound at 1 μM, read-out: Residual enzymatic activity (%) at 1 μM, CDK4 D1; for Ki: Km ATP, read-out: Enzymatic inhibition, Ki, CDK4 D1. The gist of the method: as §1

CDK7/CyclinH/Mat1, sequence (P50613 whole entry, species assumed): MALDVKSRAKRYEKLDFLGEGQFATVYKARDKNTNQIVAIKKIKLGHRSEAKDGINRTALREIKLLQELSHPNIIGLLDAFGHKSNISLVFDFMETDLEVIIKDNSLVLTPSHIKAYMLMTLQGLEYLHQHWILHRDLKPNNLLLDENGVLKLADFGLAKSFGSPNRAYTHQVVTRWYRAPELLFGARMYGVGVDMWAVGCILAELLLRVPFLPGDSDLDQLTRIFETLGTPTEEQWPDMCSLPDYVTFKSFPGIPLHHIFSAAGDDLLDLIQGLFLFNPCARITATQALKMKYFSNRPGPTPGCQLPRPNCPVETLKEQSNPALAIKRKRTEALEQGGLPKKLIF
CDK7/CyclinH/Mat1, sequence (P51946 whole entry partner, species assumed): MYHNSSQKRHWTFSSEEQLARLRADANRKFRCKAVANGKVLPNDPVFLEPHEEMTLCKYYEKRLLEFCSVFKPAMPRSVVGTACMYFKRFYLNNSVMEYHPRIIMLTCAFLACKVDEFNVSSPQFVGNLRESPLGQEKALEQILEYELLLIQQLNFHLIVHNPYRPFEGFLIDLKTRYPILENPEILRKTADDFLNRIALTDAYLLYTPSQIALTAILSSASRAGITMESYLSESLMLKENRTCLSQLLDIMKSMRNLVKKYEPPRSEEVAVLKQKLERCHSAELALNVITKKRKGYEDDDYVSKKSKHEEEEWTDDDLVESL
CDK7/CyclinH/Mat1, sequence (P51948 whole entry partner, species assumed): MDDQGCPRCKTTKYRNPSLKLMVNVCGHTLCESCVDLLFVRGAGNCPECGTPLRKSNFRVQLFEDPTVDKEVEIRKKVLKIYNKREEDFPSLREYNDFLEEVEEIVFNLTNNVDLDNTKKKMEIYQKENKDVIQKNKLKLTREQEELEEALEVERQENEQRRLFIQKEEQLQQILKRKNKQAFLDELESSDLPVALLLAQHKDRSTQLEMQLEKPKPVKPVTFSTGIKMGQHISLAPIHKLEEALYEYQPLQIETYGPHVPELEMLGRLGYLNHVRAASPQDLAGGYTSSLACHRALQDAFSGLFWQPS
CDK6/CyclinD3, sequence (Q00534 whole entry, species assumed): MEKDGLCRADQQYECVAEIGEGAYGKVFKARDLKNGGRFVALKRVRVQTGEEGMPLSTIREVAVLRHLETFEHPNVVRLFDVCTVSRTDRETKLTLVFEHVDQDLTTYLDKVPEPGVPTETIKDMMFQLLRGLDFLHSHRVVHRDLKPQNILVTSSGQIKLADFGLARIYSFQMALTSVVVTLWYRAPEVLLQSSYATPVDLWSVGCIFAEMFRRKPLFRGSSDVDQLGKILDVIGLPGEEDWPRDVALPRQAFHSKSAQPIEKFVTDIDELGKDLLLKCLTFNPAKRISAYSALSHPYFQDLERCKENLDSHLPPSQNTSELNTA
CDK6/CyclinD3, sequence (P30281 whole entry partner, species assumed): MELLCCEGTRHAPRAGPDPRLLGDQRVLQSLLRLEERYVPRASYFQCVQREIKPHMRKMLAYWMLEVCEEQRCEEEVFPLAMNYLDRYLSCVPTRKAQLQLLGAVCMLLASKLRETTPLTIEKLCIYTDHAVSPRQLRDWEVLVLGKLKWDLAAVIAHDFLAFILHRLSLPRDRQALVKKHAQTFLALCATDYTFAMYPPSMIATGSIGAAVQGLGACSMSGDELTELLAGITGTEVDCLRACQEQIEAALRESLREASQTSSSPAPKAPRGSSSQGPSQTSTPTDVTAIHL
CDK4/CyclinD1, sequence (P11802 whole entry, species assumed): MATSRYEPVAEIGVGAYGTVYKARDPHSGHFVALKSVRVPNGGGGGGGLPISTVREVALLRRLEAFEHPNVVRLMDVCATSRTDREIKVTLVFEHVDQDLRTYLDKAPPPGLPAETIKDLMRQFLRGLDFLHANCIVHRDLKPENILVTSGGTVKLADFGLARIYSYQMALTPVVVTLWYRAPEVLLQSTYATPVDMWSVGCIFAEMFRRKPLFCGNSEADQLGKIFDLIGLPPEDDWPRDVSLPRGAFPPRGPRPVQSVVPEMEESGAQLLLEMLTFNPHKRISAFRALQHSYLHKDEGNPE
CDK4/CyclinD1, sequence (P24385 whole entry partner, species assumed): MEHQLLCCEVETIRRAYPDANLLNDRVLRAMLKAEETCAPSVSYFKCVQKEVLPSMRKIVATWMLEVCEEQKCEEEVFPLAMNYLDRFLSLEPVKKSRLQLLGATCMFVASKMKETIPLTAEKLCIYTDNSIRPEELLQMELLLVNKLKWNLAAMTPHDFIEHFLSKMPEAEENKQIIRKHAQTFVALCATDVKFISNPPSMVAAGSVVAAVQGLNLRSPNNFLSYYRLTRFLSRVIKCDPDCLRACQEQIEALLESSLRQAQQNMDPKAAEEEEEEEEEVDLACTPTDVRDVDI
CDK1/CyclinB, sequence (P06493 whole entry, species assumed): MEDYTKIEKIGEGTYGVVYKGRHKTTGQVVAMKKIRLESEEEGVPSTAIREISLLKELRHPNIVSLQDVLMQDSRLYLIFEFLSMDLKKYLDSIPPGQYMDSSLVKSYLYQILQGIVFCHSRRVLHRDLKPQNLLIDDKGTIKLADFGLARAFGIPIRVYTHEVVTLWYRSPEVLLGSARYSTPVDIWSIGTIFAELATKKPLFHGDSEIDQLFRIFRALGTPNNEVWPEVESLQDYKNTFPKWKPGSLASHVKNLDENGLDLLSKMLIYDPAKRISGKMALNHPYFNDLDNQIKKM
CDK1/CyclinB, sequence (P14635 whole entry partner, species assumed): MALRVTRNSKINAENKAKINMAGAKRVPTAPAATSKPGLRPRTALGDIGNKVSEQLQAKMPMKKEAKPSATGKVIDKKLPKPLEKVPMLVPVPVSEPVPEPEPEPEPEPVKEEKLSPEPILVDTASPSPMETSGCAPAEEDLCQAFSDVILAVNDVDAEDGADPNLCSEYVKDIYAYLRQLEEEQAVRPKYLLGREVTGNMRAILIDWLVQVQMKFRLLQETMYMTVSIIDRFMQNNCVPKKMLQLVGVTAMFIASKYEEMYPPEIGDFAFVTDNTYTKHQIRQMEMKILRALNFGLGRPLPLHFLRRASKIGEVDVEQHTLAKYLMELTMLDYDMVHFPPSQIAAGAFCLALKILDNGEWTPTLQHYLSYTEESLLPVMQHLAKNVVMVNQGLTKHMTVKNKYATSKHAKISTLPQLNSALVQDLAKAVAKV
CDK9/CyclinT1, sequence (P50750 whole entry, species assumed): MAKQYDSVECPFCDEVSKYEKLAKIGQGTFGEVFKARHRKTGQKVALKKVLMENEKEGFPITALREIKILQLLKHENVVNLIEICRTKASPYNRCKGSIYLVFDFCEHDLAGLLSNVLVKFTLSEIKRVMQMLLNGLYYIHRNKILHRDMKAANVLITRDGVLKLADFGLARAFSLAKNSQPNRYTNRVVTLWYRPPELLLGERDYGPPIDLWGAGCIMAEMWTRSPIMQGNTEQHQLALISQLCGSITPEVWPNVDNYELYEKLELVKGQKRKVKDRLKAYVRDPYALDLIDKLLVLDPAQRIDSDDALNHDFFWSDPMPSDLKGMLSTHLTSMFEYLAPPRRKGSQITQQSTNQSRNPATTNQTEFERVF
CDK9/CyclinT1, sequence (O60563 whole entry partner, species assumed): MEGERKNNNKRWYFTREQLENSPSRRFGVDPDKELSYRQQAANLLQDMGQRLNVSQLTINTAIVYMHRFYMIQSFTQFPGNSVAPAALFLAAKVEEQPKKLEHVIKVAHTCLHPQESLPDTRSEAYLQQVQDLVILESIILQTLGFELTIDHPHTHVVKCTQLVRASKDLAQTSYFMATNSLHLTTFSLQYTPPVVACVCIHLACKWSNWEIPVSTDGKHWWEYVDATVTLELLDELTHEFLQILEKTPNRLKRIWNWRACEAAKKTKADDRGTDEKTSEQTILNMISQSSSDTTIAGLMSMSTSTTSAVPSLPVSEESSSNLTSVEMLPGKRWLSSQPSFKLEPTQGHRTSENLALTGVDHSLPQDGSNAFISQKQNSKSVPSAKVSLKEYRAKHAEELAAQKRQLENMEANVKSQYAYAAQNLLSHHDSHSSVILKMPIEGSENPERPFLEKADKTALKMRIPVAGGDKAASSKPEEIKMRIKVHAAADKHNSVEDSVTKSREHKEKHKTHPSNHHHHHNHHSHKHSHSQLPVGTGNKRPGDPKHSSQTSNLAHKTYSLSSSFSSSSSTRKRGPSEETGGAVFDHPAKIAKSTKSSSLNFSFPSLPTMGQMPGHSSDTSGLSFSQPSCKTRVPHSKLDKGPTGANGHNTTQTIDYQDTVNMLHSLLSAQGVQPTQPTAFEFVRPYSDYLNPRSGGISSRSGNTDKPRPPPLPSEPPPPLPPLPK

For `CS(=O)(=O)N1CCN(c2ccc(Nc3nccc(-c4cnc5ccc(-c6cccs6)cn45)n3)cn2)CC1` [Compound 21, N-(6-(4-(Methylsulfonyl)piperazin-1-yl)pyridin-3-yl)-4-(6-(thiophen-2-yl)imidazo[1,2-a]pyridin-3-yl)pyrimidin-2-amine], the remaining activity at 1 µM turned out to be 28% on CDK2/CyclinA2 and 33% at CDK4/CyclinD1. For the same compound, the inhibitory constant (Ki) (usually a measure of affinity in units of concentration, obtained from inhibition or displacement) on CDK6/CyclinD3 was > 5000 nM; on FLT3-ITD, 6 nM; on CDK7/CyclinH/Mat1 it was 3970 nM; on CDK9/CyclinT1 it was 8 nM; on CDK1/CyclinB, 635 nM. Besides, the GI50 (as a rule, the concentration at which growth is held to half of that of the control) with MV-4-11 worked out at 11 nM.

On to `CN1CCN(c2ccc(Nc3nccc(-c4cnc5ccc(-c6ccccc6)cn45)n3)cn2)CC1` [Compound 6, N-(6-(4-Methylpiperazin-1-yl)pyridin-3-yl)-4-(6-phenylimidazo[1,2-a]pyridin-3-yl)pyrimidin-2-amine], for which the Ki on CDK2/CyclinA2 is 177 nM; on CDK6/CyclinD3, > 5000 nM; on FLT3-ITD, 4 nM; at CDK7/CyclinH/Mat1 it was 238 nM; at CDK9/CyclinT1, < 0.1 nM; on CDK1/CyclinB, 265 nM. In addition, the Ki at CDK4/CyclinD1 stood at 229 nM. In addition, the “inhibition of CDK9 (in words)” value at CDK9/CyclinT1 (compared with comparator compounds A, B and C (N-(pyridin-2-yl)pyrimidin-2-amine moiety)) was “dramatically and surprisingly increased the potency of inhibition of CDK9”. Further, in the assay with MV-4-11, the GI50 amounted to 4 nM.

For `Cc1cnc(Nc2ccc(N3CCN(C)CC3)nc2)nc1-c1cnc2ccccn12` [Compound 3, 4-(Imidazo[1,2-a]pyridin-3-yl)-5-methyl-N-(6-(4-methylpiperazin-1-yl)pyridin-3-yl) pyrimidin-2-amine], the Ki was found to be 83 nM on CDK2/CyclinA2; 522 nM at CDK6/CyclinD3; 9 nM at FLT3-ITD; 2900 nM on CDK7/CyclinH/Mat1; 136 nM on CDK9/CyclinT1; 505 nM on CDK1/CyclinB. Moreover, the Ki on CDK4/CyclinD1 is 46 nM. In addition, the GI50 in the assay on MV-4-11 is 32 nM.

As for `Fc1cnc(Nc2ccc(N3CCOCC3)nc2)nc1-c1cnc2ccccn12` [Compound 15, 5-Fluoro-4-(imidazo[1,2-a]pyridin-3-yl)-N-(6-morpholinopyridin-3-yl)pyrimidin-2-amine], the Ki at CDK2/CyclinA2 is 3 nM; on CDK6/CyclinD3, 1000 nM; on FLT3-ITD it was 15 nM; at CDK7/CyclinH/Mat1 it was 1630 nM; at CDK9/CyclinT1, 234 nM; at CDK1/CyclinB it was 10 nM. Also, the Ki at CDK4/CyclinD1 came to 543 nM. The GI50 with MV-4-11 came to 20 nM.

Regarding `CC(C)N1CCN(c2ccc(Nc3nccc(-c4cnc5ccc(-c6ccsc6)cn45)n3)cn2)CC1` [Compound 54, N-(6-(4-Isopropylpiperazin-1-yl)pyridin-3-yl)-4-(6-(thiophen-3-yl)imidazo[1,2-a]pyridin-3-yl)pyrimidin-2-amine], the results for the Ki on CDK2/CyclinA2, at FLT3-ITD and on CDK9/CyclinT1 were 376 nM, 11 nM and 14 nM, respectively. Further, the remaining activity at 1 µM on CDK6/CyclinD3 is 24%; at CDK7/CyclinH/Mat1, 29%; at CDK1/CyclinB, 32%; at CDK4/CyclinD1 it was 48%. For the same compound, in the assay with MV-4-11, the GI50 was 50 nM.

For the compound `O=C(c1ccc(Nc2ncc(F)c(-c3cnc4ccc(-c5ccccc5)cn34)n2)cn1)N1CCCCC1` [Compound 32, (5-((5-Fluoro-4-(6-phenylimidazo[1,2-a]pyridin-3-yl)pyrimidin-2-yl)amino)pyridin-2-yl) (piperidin-1-yl)methanone], the remaining activity at 1 µM on CDK2/CyclinA2 stood at 89%; at CDK6/CyclinD3 it was 44%; on CDK7/CyclinH/Mat1, 100%; on CDK1/CyclinB it was 96%; on CDK4/CyclinD1, 91%. The Ki on FLT3-ITD and on CDK9/CyclinT1 was > 1000 nM in each case. Besides, the GI50 in the assay on MV-4-11 stood at 620 nM.

As to `COC(=O)c1ccc(Nc2nccc(-c3cnc4ccc(Br)cn34)n2)cn1` [Compound 82, Methyl 5-((4-(6-bromoimidazo[1,2-a]pyridin-3-yl)pyrimidin-2-yl)amino)picolinate], the results for the Ki on CDK2/CyclinA2, on FLT3-ITD and at CDK9/CyclinT1 were 52 nM, 180 nM and 163 nM, respectively. Further, the remaining activity at 1 µM worked out at 99% on CDK6/CyclinD3, 93% at CDK7/CyclinH/Mat1, 90% at CDK1/CyclinB and 94% at CDK4/CyclinD1. For the same compound, in the assay on MV-4-11, the concentration for 50% growth inhibition (GI50) turned out to be 262 nM.

Regarding `CCCNc1ccc(Nc2nccc(-c3cnc4ccc(Br)cn34)n2)cn1` [Compound 74, N^5-(4-(6-Bromoimidazo[1,2-a]pyridin-3-yl)pyrimidin-2-yl)-N^2-propylpyridine-2,5-diamine], the remaining activity at 1 µM came to 41% on CDK2/CyclinA2; 86% at CDK6/CyclinD3; 78% at CDK7/CyclinH/Mat1; 82% on CDK1/CyclinB; 54% on CDK4/CyclinD1. For the same compound, the Ki worked out at 40 nM at FLT3-ITD and 102 nM on CDK9/CyclinT1. The GI50 with MV-4-11 was found to be 20 nM.

In the case of `CS(=O)(=O)N1CCN(c2ccc(Nc3nccc(-c4cnc5ccc(-c6ccncc6)cn45)n3)cn2)CC1` [Compound 18, N-(6-(4-(Methylsulfonyl)piperazin-1-yl)pyridin-3-yl)-4-(6-(pyridin-4-yl)imidazo[1,2-a]pyridin-3-yl)pyrimidin-2-amine], the Ki was 557 nM at CDK2/CyclinA2; > 5000 nM on CDK6/CyclinD3; 27 nM on FLT3-ITD; 21 nM at CDK9/CyclinT1; 450 nM at CDK1/CyclinB. Moreover, the results for the remaining activity at 1 µM at CDK7/CyclinH/Mat1 and on CDK4/CyclinD1 were 28% and 47%, respectively. Besides, the GI50 in the assay on MV-4-11 came out at 1 nM.

Turning to `CN1CCN(c2ccc(Nc3nccc(-c4cnc5ccc(Br)cn45)n3)cn2)CC1` [Compound 5, 4-(6-Bromoimidazo[1,2-a]pyridin-3-yl)-N-(6-(4-methylpiperazin-1-yl)pyridin-3-yl)pyrimidin-2-amine], the Ki at CDK2/CyclinA2 came out at 98 nM; at CDK6/CyclinD3, 716 nM; on FLT3-ITD it was 79 nM; at CDK7/CyclinH/Mat1, 2360 nM; on CDK9/CyclinT1, 5 nM; at CDK1/CyclinB it was 317 nM. Moreover, on CDK4/CyclinD1, the Ki was 712 nM. In the assay on MV-4-11, the GI50 came to 7 nM.

`COc1ccc(-c2ccc3ncc(-c4ccnc(Nc5ccc(N6CCN(C(C)=O)CC6)nc5)n4)n3c2)cn1` [Compound 48, 1-(4-(5-((4-(6-(6-Methoxypyridin-3-yl)imidazo[1,2-a]pyridin-3-yl)pyrimidin-2-yl)amino)pyridin-2-yl)piperazin-1-yl)ethan-1-one]: the remaining activity at 1 µM at CDK2/CyclinA2 was 34%; on CDK6/CyclinD3, 30%; on CDK7/CyclinH/Mat1, 75%; on CDK1/CyclinB, 58%; at CDK4/CyclinD1, 86%. The values for the inhibitory constant (Ki) at FLT3-ITD and at CDK9/CyclinT1 were 86 nM and 274 nM, respectively. Moreover, the GI50 in the assay on MV-4-11 is 18 nM.
